Experiments:
SUIT-2 = experiment: Cytotoxicity, sulforhodamine B (SRB) assay, SUIT-2; assay type: cell-based, human; conditions: SUIT-2, Pancreas, 48 h
From the text: (§1) Human non-small cell lung cancer (NSCLC) cell lines (e.g., A549, H441GL and H1299), colon cancer cell lines (e.g., HCT116 and DLD1), breast cancer cell lines (e.g., MCF7 and MDA-MB-231), and pancreatic cancer cell lines (e.g., PANC-1 and SUIT-2) were used in cytotoxicity studies. These NSCLC cell lines have intrinsic resistance to epidermal growth factor receptor (EGFR) inhibitors, e.g., gefitinib. A549 and H441GL are EGFR-wild type adenocarcinoma cell lines. H1299 is an EGFR-wild type large cell carcinoma cell line. HCT116 and DLD1 are metastatic colon cell lines. MCF7 is a hormone-responsive breast cancer cell line. MDA-MB-231 is a triple-negative breast cancer cell line. PANC-1 is a metastatic adenocarcinoma cell line. SUIT-2 is a pancreatic ductal adenocarcinoma cell line.
(§2) All cell lines were grown and maintained in RPMI medium supplemented with 10% fetal bovine serum (FBS, Invitrogen), 2 mM L-glutamine, 100 U/mL penicillin, and 100 μg/mL streptomycin. For cell the culture experiment, stock solution (10 mM) of each test compound was dissolved in dimethyl sulfoxide (DMSO; Sigma).
(§3) Cells were plated in 96-well plates at a density of 2000 cells per well in triplicate. The cells in each well were treated on the third day (to ensure proper plating efficiency and vitality) with different concentrations (0-50 μM) of each test compound for 48 h.
(§4) Cell viability was assessed using the sulforhodamine B (SRB) assay. The medium was discarded, and the adherent cells were fixed by 100 μL of cold 10% trichloroacetic acid (w/v) in each well for 1 h at 4° C. After fixation, cells were stained with 100 μL/well of 0.4% (w/v, in 1% acetic acid) SRB solution for 30 min at room temperature, and then washed 5 times with 1% acetic acid. After air-drying, 100 μL of 10 mM Tris base was added to each well and the absorbance was read at 530 nm. Cytotoxicity is expressed as the percent of cells in drug treated wells relative to number of cells in the solvent only control (set to 100%). Each experiment was performed independently in triplicate and cytotoxicity IC50 value of each test compound was calculated from cytotoxicity data obtained at various concentrations.

MCF7 = experiment: Cytotoxicity, sulforhodamine B (SRB) assay, MCF7; assay type: cell-based, human; conditions: MCF7, Breast, 48 h
From the text: as §1, §2, §3, §4

PANC-1 = experiment: Cytotoxicity, sulforhodamine B (SRB) assay, PANC-1; assay type: cell-based, human; conditions: PANC-1, Pancreas, 48 h, NA = no activity
From the text: as §1, §2, §3, §4

A549 = experiment: Cytotoxicity, sulforhodamine B (SRB) assay, A549; assay type: cell-based, Human; conditions: A549, 48 h, NA indicates no activity
From the text: as §1, with “These NSCLC cell lines have intrinsic resistance to epidermal growth factor receptor (EGFR) inhibitors, e.g., gefitinib.” left out
as §2, §3, §4

MDA-MB-231 = experiment: Cytotoxicity, sulforhodamine B (SRB) assay, MDA-MB-231; assay type: cell-based, human; conditions: MDA-MB-231, Breast, 48 h
From the text: as §1, §2, §3, §4

lung cancer cells = experiment: Cytotoxicity SRB assay, summary of Table 2; assay type: cell-based, Human; conditions: summary in words of Table 2
From the text: as §1, §3, §4
NA indicates no activity.

H441GL = experiment: Cytotoxicity, sulforhodamine B (SRB) assay, H441GL; assay type: cell-based, Human; conditions: 48 h, NA indicates no activity
From the text: as §1, with “These NSCLC cell lines have intrinsic resistance to epidermal growth factor receptor (EGFR) inhibitors, e.g., gefitinib.” left out
as §2, §3, §4

H441GL cells [1] = experiment: Study 2: tumor size in mouse lung cancer model; assay type: in vivo, NOD/SCID mice; conditions: Study 2, 0.0127 mmol/kg daily, i.p.; for Tumor Size [Fold Change from Week 3 (Mean ± SD, n = 4)] Week 3: Week 3 (baseline, start of treatment)
Experimental: (§5) H441GL cells (1×10^6 cells in 100 μL phosphate-buffered saline/injection) were subcutaneously injected into the right flank of NOD/SCID mice (female, 4-6 weeks old). Mice were allowed 2 weeks for tumor growth. On the first day of Week 3 post injection, tumor-bearing mice were randomly divided into control group (DMSO vehicle, intraperitoneal (i.p.) injection) and test compound treatment groups (5 mg/kg/day, 5 days/week, i.p. injection). Over the period of 10 weeks, tumorigenesis in both groups was measured using a caliper on a weekly basis. The change in tumor size was expressed as in fold change from Week 3. In this study body weight of each mouse was also recorded at the end of each study week.
In this study, the daily dose was 0.0127 mmol/kg instead of 5 mg/kg.

H441GL cells [2] = experiment: Study 1: tumor size in mouse lung cancer model; assay type: in vivo, NOD/SCID mice; conditions: Study 1, 5 mg/kg/day, 5 days/week, i.p.; for Tumor Size [Fold Change from Week 3 (Mean ± SD, n = 4)] Week 3: Week 3 (baseline, start of treatment)
Experimental: as §5

H1299 = experiment: Cytotoxicity, sulforhodamine B (SRB) assay, H1299; assay type: cell-based; conditions: Homo sapiens, NCI-H1299, H1299, 48 h
From the text: as §1, with “These NSCLC cell lines have intrinsic resistance to epidermal growth factor receptor (EGFR) inhibitors, e.g., gefitinib.” left out
as §2, §3, §4

| SMILES | IC50 (SUIT-2) [µM] | IC50 (MCF7) [µM] | IC50 (PANC-1) [µM] | IC50 (A549) [µM] | IC50 (MDA-MB-231) [µM] | inhibition of cell proliferation of lung cancer cells (lung cancer cells) | IC50 (H441GL) [µM] | IC50 (A549; Homo sapiens) [µM] | IC50 (H441GL; Homo sapiens) [µM] | other results |
| --- | --- | --- | --- | --- | --- | --- | --- | --- | --- | --- |
| COCCOCCOCCN1CCN(CCCN2c3ccccc3Sc3ccc(Cl)cc32)CC1 [Compound 4-1a] | 13.2 | 12.8 | 12.3 | 32.5 | 11.9 | inhibit cell proliferation | 13.2 | – | – | – |
| COCCOCCOCCOCCOCCOCCN1CCN(CCCN2c3ccccc3Sc3ccc(Cl)cc32)CC1 [Compound 4-2a] | 13.5 | 13.2 | 13.1 | 10.9 | 18.1 | inhibit cell proliferation | 9.1 | – | – | Tumor Size [Fold Change from Week 3 (Mean ± SD, n = 4)] Week 3 (H441GL cells [1]): 1 ± 0 Fold Change; Tumor Size [Fold Change from Week 3 (Mean ± SD, n = 4)] Week 9 (H441GL cells [1]): 10.3 ± 1.6 Fold Change; Tumor Size [Fold Change from Week 3 (Mean ± SD, n = 4)] Week 13 (H441GL cells [1]): 25.6 ± 5.1 Fold Change |
| COCCOCCOCCOCCOCCOCCOCCOCCOCCOCCOCCOCCN1CCN(CCCN2c3ccccc3Sc3ccc(Cl)cc32)CC1 [Compound 4-3a] | 25.4 | 10 | 7.1 | 11.9 | 15.6 | inhibit cell proliferation | 12.7 | – | – | Tumor Size [Fold Change from Week 3 (Mean ± SD, n = 4)] Week 3 (H441GL cells [1]): 1 ± 0 Fold Change; Tumor Size [Fold Change from Week 3 (Mean ± SD, n = 4)] Week 9 (H441GL cells [1]): 12.5 ± 1.5 Fold Change; Tumor Size [Fold Change from Week 3 (Mean ± SD, n = 4)] Week 13 (H441GL cells [1]): 32.6 ± 4.3 Fold Change |
| COCCOCCOCCOCCOCCOCCOCCOCCOCCOCCOCCOCCOCCOCCOCCOCCN1CCN(CCCN2c3ccccc3Sc3ccc(Cl)cc32)CC1 [Compound 4-4a] | – | – | – | 20.2 | – | inhibit cell proliferation | 12.9 | – | – | – |
| COCCOCCOCCOCCOCCOCCOCCOCCOCCOCCOCCOCCOCCOCCOCCOCCN1CCN(CCCN2c3ccccc3Sc3ccc(C(F)(F)F)cc32)CC1 [Compound 4-4b] | – | – | – | – | – | – | 36.4 | – | – | – |
| COCCOCCOCCOC(=O)N1CCN(CCCN2c3ccccc3Sc3ccc(Cl)cc32)CC1 [Compound 5-1a, NDP-CO—O—[CH2CH2O]3—CH3] | 18.6 | 15.5 | 6.7 | 15.7 | 22.2 | inhibit cell proliferation | 16 | – | – | Tumor Size [Fold Change from Week 3 (Mean ± SD, n = 4)] Week 3 (H441GL cells [2]): 1 ± 0 Fold Change; Tumor Size [Fold Change from Week 3 (Mean ± SD, n = 4)] Week 9 (H441GL cells [2]): 24.9 ± 4.3 Fold Change; Tumor Size [Fold Change from Week 3 (Mean ± SD, n = 4)] Week 13 (H441GL cells [2]): 55.4 ± 10.8 Fold Change |
| COCCOCCOCCOCCOCCOCCOC(=O)N1CCN(CCCN2c3ccccc3Sc3ccc(Cl)cc32)CC1 [Compound 5-2a, NDP-CO—O—[CH2CH2]6—CH3] | 16.2 | 15.3 | 6.9 | 25.2 | 21.6 | inhibit cell proliferation | 18.7 | – | – | Tumor Size [Fold Change from Week 3 (Mean ± SD, n = 4)] Week 3 (H441GL cells [2]): 1 ± 0 Fold Change; Tumor Size [Fold Change from Week 3 (Mean ± SD, n = 4)] Week 9 (H441GL cells [2]): 28.0 ± 6.5 Fold Change; Tumor Size [Fold Change from Week 3 (Mean ± SD, n = 4)] Week 13 (H441GL cells [2]): 66.2 ± 18.4 Fold Change |
| COCCOCCOCCOCCOCCOCCOCCOCCOCCOCCOCCOCCOC(=O)N1CCN(CCCN2c3ccccc3Sc3ccc(Cl)cc32)CC1 [Compound 5-3a, NDP-CO—O—[CH2CH2O]12—CH3] | 11.3 | 6.5 | 5 | 2.7 | 8.9 | inhibit cell proliferation | 3 | – | – | Tumor Size [Fold Change from Week 3 (Mean ± SD, n = 4)] Week 3 (H441GL cells [2]): 1 ± 0 Fold Change; Tumor Size [Fold Change from Week 3 (Mean ± SD, n = 4)] Week 9 (H441GL cells [2]): 23.7 ± 3.4 Fold Change; Tumor Size [Fold Change from Week 3 (Mean ± SD, n = 4)] Week 13 (H441GL cells [2]): 53.9 ± 10.1 Fold Change |
| COCCOCCOCCOCCOCCOCCOCCOCCOCCOCCOCCOCCOCCOCCOCCOCCOC(=O)N1CCN(CCCN2c3ccccc3Sc3ccc(Cl)cc32)CC1 [Compound 5-4a, NDP-CO—O—[CH2CH2O]16—CH3] | – | – | – | 6.2 | – | inhibit cell proliferation | 3 | – | – | – |
| COCCOCCOCCOCCOCCOCCOCCOCCOCCOCCOCCOCCOCCOCCOCCOCCOC(=O)N1CCN(CCCN2c3ccccc3Sc3ccc(C(F)(F)F)cc32)CC1 [Compound 5-4b, NDT-CO—O—[CH2CH2O]16—CH3] | – | – | – | 13.8 | – | inhibit cell proliferation | 17.5 | – | – | – |
| COCCOCCOCCOCC(=O)N1CCN(CCCN2c3ccccc3Sc3ccc(Cl)cc32)CC1 [Compound 6-1a, NDP-CO—[CH2CH2O]3—CH3] | – | – | – | – | – | inhibit cell proliferation | – | 25.8 | 21.5 | – |
| COCCOCCOCCOCC(=O)N1CCN(CCCN2c3ccccc3Sc3ccc(C(F)(F)F)cc32)CC1 [Compound 6-1b, NDT-CO—[CH2CH2O]3—CH3] | – | – | – | – | – | inhibit cell proliferation | – | 17 | 16.2 | – |
| COCCOCCOCCOCCOCCOCCOCC(=O)N1CCN(CCCN2c3ccccc3Sc3ccc(Cl)cc32)CC1 [Compound 6-2a, NDP-CO—[CH2CH2O]6—CH3] | – | – | – | – | – | inhibit cell proliferation | – | 31.5 | 25.2 | – |
| COCCOCCOCCOCCOCCOCCOCC(=O)N1CCN(CCCN2c3ccccc3Sc3ccc(C(F)(F)F)cc32)CC1 [Compound 6-2b, NDT-CO—[CH2CH2O]6—CH3] | – | – | – | 15.5 | – | inhibit cell proliferation | 15.5 | – | – | – |
| COCCOCCOCCOCCOCCOCCOCCOCCOCCOCCOCCOCCOCC(=O)N1CCN(CCCN2c3ccccc3Sc3ccc(Cl)cc32)CC1 [Compound 6-3a, NDP-CO—[CH2CH2O]12—CH3] | – | – | – | – | – | inhibit cell proliferation | – | 22.3 | 24.3 | – |
| COCCOCCOCCOCCOCCOCCOCCOCCOCCOCCOCCOCCOCC(=O)N1CCN(CCCN2c3ccccc3Sc3ccc(C(F)(F)F)cc32)CC1 [Compound 6-3b, NDT-CO—[CH2CH2O]12—CH3] | – | – | – | 20.6 | – | – | – | – | – | – |
| COCCOCCOCCOCCOCCOCCOCCOCCOCCOCCOCCOCCOCCOCCOCCOCCOCC(=O)N1CCN(CCCN2c3ccccc3Sc3ccc(Cl)cc32)CC1 [Compound 6-4a, NDP-CO—[CH2CH2O]16—CH3] | – | – | – | – | – | – | – | – | 39.1 | – |
| COCCOCCOCCOCCOCCOCCOCCOCCOCCOCCOCCOCCOCCOCCOCCOCCOCC(=O)N1CCN(CCCN2c3ccccc3Sc3ccc(C(F)(F)F)cc32)CC1 [Compound 6-4b, NDT-CO—[CH2CH2O]16—CH3] | – | – | – | – | – | – | – | 44.2 | 30 | – |
| FC(F)(F)c1ccc2c(c1)N(CCCN1CCNCC1)c1ccccc1S2 [NDT, N-desmethyl trifluoperazine, reference compound] | – | – | – | – | – | inhibit cell proliferation | – | 6.3 | 3.9 | IC50 (H1299): 6.9 µM |

Reference: patent US9850219B1, “Phenothiazine derivatives and methods of use thereof” (Acenda Pharma, Inc., priority 2016, dated 2017)
